Experimental findings from ChEMBL document CHEMBL1201862, “PubChem BioAssay data set” (2004) are described below.

SMILES strings stand for the structures. The source made the active and inactive calls.

For test [1], the target named is T1, Short transient receptor potential channel 4 (Mus musculus, UniProt Q9QUQ5).
T1 sequence (Q9QUQ5 whole entry): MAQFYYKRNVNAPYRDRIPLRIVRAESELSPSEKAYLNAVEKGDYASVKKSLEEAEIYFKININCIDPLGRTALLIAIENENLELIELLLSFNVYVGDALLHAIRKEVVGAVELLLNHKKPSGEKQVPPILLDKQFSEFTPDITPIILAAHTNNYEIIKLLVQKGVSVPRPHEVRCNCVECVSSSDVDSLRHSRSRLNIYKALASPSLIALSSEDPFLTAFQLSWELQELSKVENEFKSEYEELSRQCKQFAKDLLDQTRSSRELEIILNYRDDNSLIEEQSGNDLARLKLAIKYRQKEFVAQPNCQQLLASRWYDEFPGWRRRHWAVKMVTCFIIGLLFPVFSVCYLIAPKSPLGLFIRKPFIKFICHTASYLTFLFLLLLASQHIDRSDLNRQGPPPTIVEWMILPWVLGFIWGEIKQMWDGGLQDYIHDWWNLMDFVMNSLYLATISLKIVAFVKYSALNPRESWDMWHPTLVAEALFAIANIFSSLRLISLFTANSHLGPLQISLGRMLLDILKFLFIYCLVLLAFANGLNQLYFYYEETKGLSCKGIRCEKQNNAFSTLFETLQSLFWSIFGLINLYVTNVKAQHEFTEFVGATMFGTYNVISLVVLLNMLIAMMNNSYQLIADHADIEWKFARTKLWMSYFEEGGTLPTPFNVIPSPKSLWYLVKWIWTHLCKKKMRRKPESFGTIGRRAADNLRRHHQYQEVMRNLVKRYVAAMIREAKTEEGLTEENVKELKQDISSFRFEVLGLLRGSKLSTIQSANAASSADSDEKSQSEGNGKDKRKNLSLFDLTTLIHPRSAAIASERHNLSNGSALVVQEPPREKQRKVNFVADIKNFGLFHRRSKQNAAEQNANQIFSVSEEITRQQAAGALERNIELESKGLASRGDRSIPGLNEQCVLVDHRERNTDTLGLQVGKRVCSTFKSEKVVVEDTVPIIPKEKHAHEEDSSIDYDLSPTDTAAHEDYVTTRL
Briefly: mouse TRPC4 channel activators, dose response, cell-based, HEK293 TRPC4/mu-opioid, Fluo-4 calcium (AID 434937). It is filed as functional.

A short description of test [2]: A cytotoxicity screen of small molecule inhibitors of the PhoP region in Salmonella typhi identified in the primary screen. [Related pubchem assays: 1850, 1864, 1985 ]. It is filed as functional.
Test [3] has as its target Estrogen receptor beta (Homo sapiens, UniProt Q92731).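 Further: recombinant ER-beta bound to coactivator SRC1 peptide in presence of estradiol agonist; inhibitors block coactivator peptide binding and lower the FRET signal.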
Test [4] has as its target Nonstructural protein 1 (Influenza A virus, UniProt Q194T2). Format: functional, Influenza A virus (A/California/07/2009(H1N1)).
Test [5] concerns the target T2, Leucine aminopeptidase (Plasmodium falciparum 3D7, UniProt Q8IL11).
T2 sequence (Q8IL11 whole entry): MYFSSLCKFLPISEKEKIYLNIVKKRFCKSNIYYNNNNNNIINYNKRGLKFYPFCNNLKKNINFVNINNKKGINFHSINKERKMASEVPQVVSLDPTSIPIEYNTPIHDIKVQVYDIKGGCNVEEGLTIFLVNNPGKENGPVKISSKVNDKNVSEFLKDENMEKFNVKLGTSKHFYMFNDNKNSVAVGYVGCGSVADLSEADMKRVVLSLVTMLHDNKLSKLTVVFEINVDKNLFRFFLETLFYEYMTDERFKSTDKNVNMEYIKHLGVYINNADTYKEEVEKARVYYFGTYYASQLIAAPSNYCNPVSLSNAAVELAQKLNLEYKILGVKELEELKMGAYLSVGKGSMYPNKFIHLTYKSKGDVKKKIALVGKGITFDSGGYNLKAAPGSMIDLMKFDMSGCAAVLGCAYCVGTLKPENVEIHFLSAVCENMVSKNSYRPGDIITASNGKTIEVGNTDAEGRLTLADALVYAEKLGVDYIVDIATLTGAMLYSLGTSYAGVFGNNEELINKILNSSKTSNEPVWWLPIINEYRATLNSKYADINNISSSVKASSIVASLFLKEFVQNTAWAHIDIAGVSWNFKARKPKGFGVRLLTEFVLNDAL
The experiment in a line: P. falciparum M17LAP inhibitors, primary screen, biochemical, fluorogenic H-Leu-NHMec substrate, 1536-well (AID 1619). Format: functional.

Test [6] deals with T3, High affinity choline transporter 1 (Homo sapiens, UniProt Q9GZV3).
T3 sequence (Q9GZV3 whole entry): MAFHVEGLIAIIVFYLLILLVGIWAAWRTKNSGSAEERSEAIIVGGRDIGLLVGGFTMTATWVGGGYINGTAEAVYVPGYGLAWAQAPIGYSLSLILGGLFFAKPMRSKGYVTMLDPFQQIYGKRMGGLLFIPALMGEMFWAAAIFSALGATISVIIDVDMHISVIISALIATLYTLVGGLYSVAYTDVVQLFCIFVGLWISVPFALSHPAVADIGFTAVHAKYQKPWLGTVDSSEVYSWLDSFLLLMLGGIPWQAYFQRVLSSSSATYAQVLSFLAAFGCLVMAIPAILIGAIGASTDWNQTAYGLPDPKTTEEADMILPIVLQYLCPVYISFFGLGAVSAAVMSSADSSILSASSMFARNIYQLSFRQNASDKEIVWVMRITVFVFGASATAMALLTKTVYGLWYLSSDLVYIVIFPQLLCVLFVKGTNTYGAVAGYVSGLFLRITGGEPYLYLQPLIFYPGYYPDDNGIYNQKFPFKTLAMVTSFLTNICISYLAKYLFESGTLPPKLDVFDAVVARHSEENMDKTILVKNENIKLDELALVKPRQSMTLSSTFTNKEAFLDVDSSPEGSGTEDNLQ
The experiment in a line: CHT inhibitors, dose response, cell-based, 5-point CRC, membrane potential dye (AID 504840). Format: functional.

Test [7] can be described thus: insulin promoter down-regulators in MIN6 cells, imaging, high-content screening, mouse beta cells (AID 1628). Format: functional.
The nature of test [8]: cytotoxicity in MIN6 insulinoma cells, dose response, cytotoxicity control, cell-based, mouse insulinoma (AID 2122).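 Further: confirmatory high-throughput counterscreen run to flag cytotoxic compounds; mouse MIN-6 beta cells carrying an insulin promoter eGFP reporter.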 Format: functional.
Test [9] in a line: microbe, parasite or virus in culture. As to conditions: Mycobacterium tuberculosis. It is filed as functional.
In test [10] the target is Luciferin 4-monooxygenase (Photinus pyralis, UniProt P08659). Briefly: firefly luciferase enzyme inhibitors, dose response, biochemical, luminescence (AID 1891).
Test [11] can be described thus: Luminescence Cell-Based Dose Confirmation HTS to Identify Inhibitors of Platelet Dense Granule Release. [Related pubchem assays: 1663 (Primary HTS), 1678 (Summary of Project)]. Format: functional.
Test [12] relates to HEK293. The experiment in a line: inhibitors of LMP1-driven NF-kB reporter, dose response, cell-based, HEK293, luciferase, cherry-pick (AID 588343). Format: functional. As to conditions: Homo sapiens.
Test [13] can be described thus: Shn3 3'UTR reporter inhibitors, dose response, cell-based, Clone20 osteoblasts, firefly luciferase, cherry-picked (AID 624132).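 Further: firefly luciferase luminescence from reporter carrying the Shn3 3'UTR in osteoblasts.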 Format: functional.
Test [14] can be described thus: HepG2 cell cytotoxicity, dose response, cytotoxicity control for Shn3 inhibitor project, CellTiter-Glo, cherry-picked (AID 624134). It is filed as functional, cell-based. In general terms: In ATP-based viability assays light output follows the ATP content of the culture.
A short description of test [15]: control 3'UTR Renilla luciferase suppression, dose response, counter-screen for Shn3 inhibitor project, cell-based, Clone20-Shn3RL, cherry-picked (AID 624133). Format: functional. A general note: Counterscreens check selectivity or assay interference.
Test [16] concerns the target T4, Hexokinase (Trypanosoma brucei, UniProt Q38C41).
T4 sequence (Q38C41 whole entry): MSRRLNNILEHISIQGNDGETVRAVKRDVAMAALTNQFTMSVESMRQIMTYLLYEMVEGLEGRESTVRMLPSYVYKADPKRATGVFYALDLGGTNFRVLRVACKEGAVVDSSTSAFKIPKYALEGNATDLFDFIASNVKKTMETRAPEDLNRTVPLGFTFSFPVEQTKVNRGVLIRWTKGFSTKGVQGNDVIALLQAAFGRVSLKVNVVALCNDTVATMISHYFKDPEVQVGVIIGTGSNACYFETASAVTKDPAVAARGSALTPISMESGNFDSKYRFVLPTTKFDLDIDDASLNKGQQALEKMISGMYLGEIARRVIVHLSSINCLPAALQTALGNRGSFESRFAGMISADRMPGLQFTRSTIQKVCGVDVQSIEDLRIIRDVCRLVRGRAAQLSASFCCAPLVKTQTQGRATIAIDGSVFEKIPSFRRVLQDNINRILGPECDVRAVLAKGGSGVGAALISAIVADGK
Briefly: Confirmation assay for inhibitors of Trypanosoma brucei hexokinase 1-Analogue-first series. [Related pubchem assays (depositor defined):AID1430, AID1632, AID2516, AID2560, AID2579, AID2600, AID449725, AID492951]. It is filed as functional.

Test [17] addresses Cytochrome P450 2C19 (Homo sapiens, UniProt P33261). The experiment in a line: Cytochrome panel assay with activity outcomes. Panel member name: p450-cyp2c19 Compounds with AC50 equal or less than 10 uM are considered active. It is filed as functional. The following applies: read-out: AC50.

Chain of Estrogen receptor beta (Q92731 whole entry): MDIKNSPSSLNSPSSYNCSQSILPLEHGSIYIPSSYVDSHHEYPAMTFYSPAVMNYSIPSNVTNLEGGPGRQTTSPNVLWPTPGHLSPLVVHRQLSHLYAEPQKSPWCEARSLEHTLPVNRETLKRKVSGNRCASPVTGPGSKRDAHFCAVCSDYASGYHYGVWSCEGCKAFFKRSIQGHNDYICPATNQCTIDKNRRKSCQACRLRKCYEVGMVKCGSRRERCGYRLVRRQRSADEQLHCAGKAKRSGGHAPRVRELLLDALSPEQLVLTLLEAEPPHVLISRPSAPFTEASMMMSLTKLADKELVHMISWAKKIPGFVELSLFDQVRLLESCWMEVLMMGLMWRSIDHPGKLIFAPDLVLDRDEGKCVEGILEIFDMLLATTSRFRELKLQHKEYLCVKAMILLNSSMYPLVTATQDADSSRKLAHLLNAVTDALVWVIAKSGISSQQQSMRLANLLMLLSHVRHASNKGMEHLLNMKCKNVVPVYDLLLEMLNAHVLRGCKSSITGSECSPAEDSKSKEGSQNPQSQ
Chain of Nonstructural protein 1 (Q194T2 whole entry): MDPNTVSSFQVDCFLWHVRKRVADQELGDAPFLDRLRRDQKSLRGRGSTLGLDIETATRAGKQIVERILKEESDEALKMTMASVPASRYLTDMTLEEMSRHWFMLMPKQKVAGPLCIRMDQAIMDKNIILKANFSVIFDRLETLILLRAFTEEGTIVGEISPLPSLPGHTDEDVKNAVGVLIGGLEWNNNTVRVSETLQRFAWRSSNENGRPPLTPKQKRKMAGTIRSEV
Chain of Cytochrome P450 2C19 (P33261 whole entry): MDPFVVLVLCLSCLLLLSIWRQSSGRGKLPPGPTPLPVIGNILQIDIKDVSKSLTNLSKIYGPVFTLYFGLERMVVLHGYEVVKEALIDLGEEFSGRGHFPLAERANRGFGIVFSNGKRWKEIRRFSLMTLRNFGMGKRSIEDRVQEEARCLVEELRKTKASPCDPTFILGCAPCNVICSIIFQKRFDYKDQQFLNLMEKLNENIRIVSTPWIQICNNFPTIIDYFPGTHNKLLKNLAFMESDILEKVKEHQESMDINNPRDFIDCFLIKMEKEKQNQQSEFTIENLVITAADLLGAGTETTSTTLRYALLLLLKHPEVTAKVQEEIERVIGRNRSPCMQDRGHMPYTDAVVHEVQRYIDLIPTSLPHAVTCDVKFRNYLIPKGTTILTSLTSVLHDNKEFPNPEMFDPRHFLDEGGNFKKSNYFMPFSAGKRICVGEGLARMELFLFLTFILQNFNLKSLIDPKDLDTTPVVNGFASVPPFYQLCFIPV
Chain of Luciferin 4-monooxygenase (P08659 whole entry): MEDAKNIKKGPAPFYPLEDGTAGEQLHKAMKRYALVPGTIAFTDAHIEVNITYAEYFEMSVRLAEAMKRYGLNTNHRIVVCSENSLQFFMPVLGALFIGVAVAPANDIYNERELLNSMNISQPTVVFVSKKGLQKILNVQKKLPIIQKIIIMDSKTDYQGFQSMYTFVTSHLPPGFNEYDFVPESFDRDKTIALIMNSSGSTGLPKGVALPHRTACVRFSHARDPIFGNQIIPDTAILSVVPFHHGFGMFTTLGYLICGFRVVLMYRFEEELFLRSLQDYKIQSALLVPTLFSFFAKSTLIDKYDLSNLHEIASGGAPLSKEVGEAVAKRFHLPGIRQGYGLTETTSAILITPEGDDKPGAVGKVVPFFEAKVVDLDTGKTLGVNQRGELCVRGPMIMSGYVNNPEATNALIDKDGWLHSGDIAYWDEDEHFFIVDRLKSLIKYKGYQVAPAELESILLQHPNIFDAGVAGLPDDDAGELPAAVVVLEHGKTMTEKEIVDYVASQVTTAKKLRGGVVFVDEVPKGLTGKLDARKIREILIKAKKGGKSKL

Turning to `CCN(CC)c1ccc(/C=C/[N+](=O)[O-])cc1`, in test [1], the EC50 was 2.99 µM (active). In the case of `COc1ccc(-c2nnc(SC(C)C(=O)Nc3nccs3)n2Cc2ccccc2)cc1OC` (stereo not given), in test [2], the concentration for a half-maximal effect (EC50) is > 50 µM (active). On to `Cc1nccn1-c1ncnc2sc3c(c12)CCCC3`, for which the IC50 in test [3] is on record as > 50 µM (not active). For the molecule `CCN1C(c2ccccc2)=C(c2ccccc2)S/C1=C/C=C1\SC(=S)N(C)C1=O`, the IC50 in test [4] was 7.78 µM (active). Consider `COc1ccc(CC(=O)NCC(c2ccc(OC)cc2)N(C)C)cc1` (stereo not given), for which, in [1], the EC50 was 0.668 µM (active). `Cc1ccccc1C(=O)NNC(=S)NC(=O)c1ccccc1`: the IC50 is 91.2 µM (active) in test [5] and 12.6 µM (active) in test [6]. Also, the EC50 in test [1] is 2.11 µM (active). As for `CC(C(=O)NC1CCS(=O)(=O)C1)N1C(=O)/C(=C/c2ccc(Cl)cc2)SC1=S` (stereo not given), in [2], the EC50 was > 50 µM (active).

Consider `N=c1c(C(=O)NCC2CCCO2)cc2c(=O)n3ccccc3nc2n1Cc1ccc(Cl)cc1` (stereo not given), for which the EC50 in [2] is > 50 µM (active). In the case of `Brc1ccc2c(c1)C(OC1CN3CCC1CC3)c1ccccc1CS2` (stereo not given), the IC50 was 2.34 µM (active) in test [7], 2.13 µM (active) in test [8] and 16 µM (active) in test [6]. Further, in test [9], the CC50 was 13.1 µM (active).

On to `COC(=O)c1ccc(N2CCN(C)CC2)c(NC(=O)c2ccc(Br)o2)c1`, for which the EC50 in test [1] is 5.96 µM (active). With `CN1CC(C(=O)c2ccc(Cl)cc2)C(c2ccc(N(C)C)cc2)C1` (stereo not given), the IC50 in test [4] is 43.8 µM (active). For the molecule `[O-][n+]1c2ccccc2cc2ccccc21`, in [2], the EC50 was > 50 µM (active). The same measure, in the same setting: the figure for `Brc1ccc2nc(-c3c[nH]c4ccccc34)cn2c1` is > 50 µM (active). `O=C(Nc1ccc(O)cc1C(=O)O)c1ccc2c(c1)C(=O)N(Cc1ccco1)C2=O`: the IC50 in [3] is 13.8 µM (active). As for `CCc1ccc2c(c1)CCCN2C(=O)c1ccccc1C(=O)O`, the IC50 in test [7] was 1.56 µM (active); in [8] it was 0.994 µM (active). As to `Cn1c(=O)c2c(nc(NCc3ccco3)n2C/C=C/c2ccccc2)n(C)c1=O`, the IC50 is 0.41 µM (active) in test [7] and < 0.25 µM (active) in [8]. In addition, the EC50 in [10] is > 112 µM (not active); in test [11], 30 µM (active). Moreover, the half-maximal activity concentration (AC50) in [12] was 4.38 µM (active); in test [13] it was 1.08 µM (active); in test [14], 4.24 µM (active); in test [15], 1.13 µM (active). `Cc1ccc(C(=O)Nc2cc(Cl)ccc2C(=O)O)cc1`: in test [16], the IC50 is 13.8 µM (active). For `C=C(C)c1ccc(C(=O)Nc2cc(Cl)ccc2C(=O)O)cc1`, the IC50 in test [16] was 7.16 µM (active). `Cn1sc(=O)c2ccccc21`: the IC50 in test [16] is > 25 µM (inactive). On the same count and under the same terms, for `COC(=O)c1ccc(Cl)cc1NC(=O)c1ccc(OC)cc1` the value was > 25 µM (inactive). As for `O=C(N/N=C/c1ccccn1)c1ccc(Br)o1`, in test [2], the EC50 is > 50 µM (active). In addition, the half-maximal activity concentration (AC50) in test [17] is 35.5 µM (inconclusive).

A word on the EC50: it is the concentration needed to bring the measured effect to its halfway point. A word on the IC50: it is the point on the concentration scale where inhibition reaches its midpoint. The AC50 is the midpoint of the concentration-response curve, whichever way the signal moves.
